ChEMBL document CHEMBL1141932 (J Med Chem, 2005)

Experiments:
Oryctolagus cuniculus [1] = organism: Oryctolagus cuniculus; assay: Inhibition of chymotrypsin-like (CT-L) activity of rabbit 20S proteasome; format: functional
Oryctolagus cuniculus [2] = organism: Oryctolagus cuniculus; assay: Inhibition of trypsin-like (T-L) activity of rabbit 20S proteasome; format: functional
HEK293 = assay: Inhibition of NF-kB activation in HEK293 cells; format: functional, cell-based; settings: Homo sapiens
RPMI-8226 = assay: Cytotoxic activity against RPMI 8226 cells; format: functional, cell-based; settings: Homo sapiens
Oryctolagus cuniculus [3] = organism: Oryctolagus cuniculus; assay: Inhibition of caspase-like (CA-L) activity of rabbit 20S proteasome; format: functional

Row | Compound | IC50 (Oryctolagus cuniculus [1]) [nM] | IC50 (Oryctolagus cuniculus [2]) [nM] | IC50 (HEK293) [nM] | IC50 (RPMI-8226) [nM] | IC50 (Oryctolagus cuniculus [3]) [nM]
1 | CC[C@@]12OC(=O)[C@]1([C@@H](O)[C@@H]1C=CCCC1)NC(=O)[C@@H]2CCCl | 2100 | 3300 | 3600 | 1900 | > 20000
2 | C[C@@]12OC(=O)[C@]1([C@@H](O)[C@@H]1C=CCCC1)NC(=O)[C@@H]2CCN=[N+]=[N-] | 7.7 | 210 | 1000 | 5500 | 560
3 | CCC[C@H]1C(=O)N[C@@]2([C@@H](O)[C@@H]3C=CCCC3)C(=O)O[C@@]12C | 24 | 1100 | 1900 | 6300 | 1200
4 | C[C@@]12OC(=O)[C@]1([C@@H](O)C1CCCCC1)NC(=O)[C@@H]2CCCl | 20 | 250 | 71 | 52 | 1400
5 | C[C@@]12OC(=O)[C@]1([C@@H](O)[C@H]1CCC[C@H](Cl)[C@H]1O)NC(=O)[C@@H]2CCCl | 8200 | > 20000 | > 20000 | > 20000 | > 20000
6 | C[C@@]12OC(=O)[C@]1(C(=O)[C@@H]1C=CCCC1)NC(=O)[C@@H]2CCCl | 8200 | 10000 | > 20000 | > 20000 | > 20000
7 | C[C@@]12OC(=O)[C@]1([C@@H](O)[C@H]1CCC[C@H]3O[C@@H]13)NC(=O)[C@@H]2CCCl | 6.3 | 92 | 34 | 32 | 570
8 | C[C@@]12OC(=O)[C@]1(C(O)[C@@H]1C=CCCC1)NC(=O)[C@@H]2CCCl (some centres not stated) | > 20000 | > 20000 | > 20000 | > 20000 | > 20000
9 | C[C@H]1C(=O)N[C@@]2([C@@H](O)[C@@H]3C=CCCC3)C(=O)O[C@@]12C | 7.7 | 340 | 850 | 8500 | 1200
10 | C[C@@]12OC(=O)[C@]1([C@@H](O)[C@@H]1C=CCCC1)NC(=O)C2CCCl (single isomer, unassigned) | 330 | 2500 | 3800 | 1900 | > 20000
11 | C[C@@]12OC(=O)[C@]1(C(O)[C@H]1CCC[C@@H]3OC13)NC(=O)[C@@H]2CCCl (single isomer, unassigned) | 91 | 770 | 300 | 320 | 3200
12 | C[C@@]12OC(=O)C1([C@@H](O)[C@@H]1C=CCCC1)NC(=O)[C@@H]2CCO (single isomer, unassigned) [hydroxysalinosporamide A] | 8 | 800 | 2600 | > 20000 | 2500
13 | C[C@@]12OC(=O)[C@]1([C@@H](O)[C@@H]1C=CCCC1)NC(=O)[C@@H]2CCBr [BROMOSALINOSPORAMIDE] | 2.6 | 14 | 14 | 7.4 | 290
14 | C[C@@]12OC(=O)[C@]1([C@@H](O)[C@@H]1C=CCCC1)NC(=O)[C@@H]2CCI [IODOSALINOSPORAMIDE] | 2.8 | 13 | 10 | 6.8 | 410
15 | C[C@@]12OC(=O)[C@]1([C@@H](O)[C@@H]1C=CCCC1)NC(=O)[C@@H]2CCCl [MARIZOMIB] | 2.6 | – | 11 | 8.2 | 430
16 | CC(C)[C@H](O)[C@@]12NC(=O)[C@H](C)[C@@H]1OC2=O [OMURALIDE] | 57 | 540 | 1600 | 3300 | > 10000
17 | CC[C@H]1C(=O)N[C@@]2([C@@H](O)[C@@H]3C=CCCC3)C(=O)O[C@@]12C [SALINOSPORAMIDE B] | 27 | 640 | 1600 | – | –
